From patent US7999147B2, “Reduction of odors in absorbent articles” (First Quality Products, Inc., priority 2004, dated 2011)
Where “and” joins values, the source holds several entries; their conditions need not be identical. Equal entries are not always repeated.

Assays:
ammonia [1] = assay: Ammonia concentration from urine in absorbent structures sprayed with additive solution (gas dosimeter tubes); set-up: species or system human; conditions: 37° C.
ammonia [2] = assay: Ammonia concentration from urine in absorbent structures containing additive-treated SAP (gas dosimeter tubes); set-up: species or system human; conditions: 1.5 g SAP treated with FORESTALL (0.135 g per 13.5 g SAP) + 4.5 g fluff pulp, 37° C., donors X, Y
Method: The following is a detailed description of the test method to measure ammonia concentrations. A series of absorbent structures are prepared according to the following. The base absorbent structure is fluff pulp or a combination of fluff and SAP. Then, for example, an aqueous solution is prepared containing a known quantity of a potential treatment for ammonia malodor. An equal quantity of the solution is sprayed onto all but one of the series of absorbent structures. The spraying is applied as uniformly as possible. One absorbent structure is sprayed with an equal volume of water and is the control. All absorbent structures are left out several hours to dry. Each of the absorbent structures is then transferred to Nalgene® Brand 125-ml, narrow-mouth polycarbonate Erlenmeyer flasks. […]
Straughan® Gastec® ammonia gas dosimeter tubes, grade 3D, are broken off and thereby opened at one end. […] Donors collect a suitable quantity of fresh urine specimen in disposable collection cups marked with volume indications. […]
The flasks are then placed into a water bath set at 37° C. […] Based on discrete markings on the detector tube, the time-weighted average concentration of ammonia measured in parts per million-hour are read from the scale and recorded. […] Readings of ammonia concentrations are read up to 72 hours time or less if any of the concentrations exceed the maximum limit of the detection tube's range. […]

[3] = Water solubility of the additive; type: physicochemical
Method: Four absorbent structures are made according to Example 4 except onto three structures, 4.5 ml of an aqueous solution containing 1% M-Quat Dimer 18 is sprayed. To dissolve the additive in water, the temperature needed to be raised to about 45-60° C. M-Quat Dimer 18 is the tradename for 2-hydroxypropylene-bis-1,3-(dimethylstearylammonium chloride). […] This chemical is manufactured by BASF Corporation.

[4] = 4.5 ml of 1% M-Quat Dimer 18 sprayed on fluff pulp + SAP, urine, donors X, Y

4-ethyl-4-soya morpholinium ethyl sulfate [FORESTALL]
Ammonia Concentration ppm-hour 8 hour reading (ammonia [1]; 4.5 ml of 1% FORESTALL sprayed on 4.5 g fluff pulp + 1.5 g SAP, fresh urine, donors X, Y, Z): 0 ppm-hour
Ammonia Concentration ppm-hour 32 hour reading (ammonia [2]): 25 ppm-hour and 30 ppm-hour

CCCCCCCCCCCCCCCCCC[N+](C)(C)CC(O)C[N+](C)(C)CCCCCCCCCCCCCCCCCC.[Cl-].[Cl-] [M-Quat Dimer 18, 2-hydroxypropylene-bis-1,3-(dimethylstearylammonium chloride)]
Ammonia Concentration ppm-hour 8 hour reading (ammonia [1]; [4]): 0 ppm-hour
Ammonia Concentration ppm-hour 32 hour reading (ammonia [1]; 4.5 ml of 1% M-Quat Dimer 18 sprayed on fluff pulp + SAP, urine, donors X, Y, 32 hour): 12 ppm-hour and 20 ppm-hour and 23 ppm-hour
Ammonia Concentration ppm-hour 48 hour reading (ammonia [1]; 4.5 ml of 1% M-Quat Dimer 18 sprayed on fluff pulp + SAP, urine, donors X, Y, 48 hour): 25 ppm-hour and 30 ppm-hour and 50 ppm-hour
Ammonia Concentration ppm-hour 72 hour reading (ammonia [1]; [4]): 250 ppm-hour and 470 ppm-hour and 280 ppm-hour and 400 ppm-hour and 425 ppm-hour
Temperature needed to dissolve the additive in water ([3]; 1% aqueous solution): 45-60 °C
Water solubility at 37° C. ([3]; 37° C.): not water soluble at 37 °C

ethylbis(hydroxyethyl)tallowalkyl ammonium ethyl sulfate
Ammonia Concentration ppm-hour 8 hour reading (ammonia [1]; 4.5 ml of 1% ethylbis(hydroxyethyl)tallowalkyl ammonium ethyl sulfate sprayed on fluff pulp + SAP, urine, donors Z, X): 0 ppm-hour

hydrogenated tallowalkyl(2-ethylhexyl)dimethylammonium methyl sulfate [ARQUAD HTL8-MS]
Ammonia Concentration ppm-hour 8 hour reading (ammonia [1]; 4.5 ml of 1% ARQUAD HTL8-MS sprayed on fluff pulp + SAP, urine, donors X, Y): 0 ppm-hour

1-propanaminium, 3-amino-N-ethyl-N,N-dimethyl-N-soya acyl derivative, ethyl sulfate
Ammonia Concentration ppm-hour 56 hour reading (ammonia [1]; 4.5 ml of 1% 1-propanaminium soya acyl derivative ethyl sulfate sprayed on fluff pulp + SAP, urine, donor Y, 56 hour): 25 ppm-hour
Ammonia Concentration ppm-hour 72 hour reading (ammonia [1]; 4.5 ml of 1% 1-propanaminium soya acyl derivative ethyl sulfate sprayed on fluff pulp + SAP, urine, donor Z): 0 ppm-hour
Ammonia Concentration ppm-hour 8 hour reading (ammonia [1]; 4.5 ml of 1% 1-propanaminium soya acyl derivative ethyl sulfate sprayed on fluff pulp + SAP, urine, donors Y, Z): 0 ppm-hour
Ammonia Concentration ppm-hour 24 hour reading (ammonia [1]; 4.5 ml of 1% 1-propanaminium soya acyl derivative ethyl sulfate sprayed on fluff pulp + SAP, urine, donors Y, Z, 24 hour): 0 ppm-hour
